According to patent US6743940B2, “4-aminobut-2-ynecarboxylic acid derivatives” (Ciba Specialty Chemicals Corporation, priority 2000, dated 2004):
Like-named read-outs stand apart in the source and are kept apart here.

Experiments:
Test in all cases: Minimum Inhibitory Concentration (MIC) in the agar incorporation test
Format in all cases: cell-based
[1] = tested on: Staphylococcus aureus ATCC 9144; details: 24 hours at 37° C.
Procedure: (§1) Determination of the Minimum Inhibitory Concentration (MIC) in the Agar Incorporation Test (MIC Test) [table] Test Principle 0.3 ml of each dilution step is mixed with 15 ml of still liquid nutrient medium. After the nutrient medium has solidified, 10 μl of each of the following organism dilutions of the test strains in 0.85% NaCl solution is dotted onto the agar medium: [table] The plates are incubated for 24 hours at 37° C. (A. niger 3 days at 28° C.) and then the highest dilution (lowest concentration) of the test substance at which no more growth is observed (corresponds to the MIC) is determined.

[2] = tested on: Candida albicans ATCC 10231; details: ATCC10231, Table 1, casein-soybean flour-peptone agar, 24 hours at 37° C., dilution series 1000 ppm to 10 ppm
Procedure: as §1

[3] = tested on: Escherichia coli NCTC 8196; details: NCTC8196, Table 1, casein-soybean flour-peptone agar, 24 hours at 37° C., dilution series 1000 ppm to 10 ppm
Procedure: as §1

[4] = tested on: Pseudomonas aeruginosa CIP A-22; details: CIPA22, Table 1, casein-soybean flour-peptone agar, 24 hours at 37° C., dilution series 1000 ppm to 10 ppm
Procedure: as §1

[5] = tested on: Aspergillus niger ATCC 6275; details: ATCC6275, 72 h, 3 days at 28° C.
Procedure: as §1

[6] = ATCC9144, Table 2, MIC test, read-out: Further microbiological test results, Staphylococcus aureus ATCC 9144
[7] = Table 2, MIC test, read-out: Further microbiological test results, Aspergillus niger ATCC 6275

Compound | MIC [1, 6] [µg/mL] | MIC [5, 7] [µg/mL] | also measured
COC(=O)CC#CCN(C)c1ccccc1 [Compound of formula (101), 4-(N-methyl-phenylamino)-but-2-yne-carboxylic Acid Methyl Ester] |  |  | MIC ([1]; ATCC9144, Table 1, casein-soybean flour-peptone agar, dilution series 1000 ppm to 10 ppm, read-out: Minimum Inhibitory Concentration (MIC), Staphylococcus aureus ATCC 9144): 62.5 µg/mL; MIC [2]: 62.5 µg/mL; MIC [3]: 125 µg/mL; MIC [4]: > 1000 µg/mL; MIC ([5]; Table 1, Sabouraud 4% glucose-agar, dilution series 1000 ppm to 10 ppm, read-out: Minimum Inhibitory Concentration (MIC), Aspergillus niger ATCC 6275): 62.5 µg/mL
CCCN(CC#CC(=O)OC)c1cccc(C)c1 [Compound of formula (106)] | 125 | 125 | 
CCCCN(CC#CC(=O)OC)c1ccccc1 [Compound of formula (107)] | 63 | 63 | 
CCCN(CC#CC(=O)OC)c1cccc(OC)c1 [Compound of formula (108)] | 63 | 125 | 
CCCN(CC#CC(=O)OCC)c1cccc(OC)c1 [Compound of formula (109)] | 1000 |  | 
CCCCCN(CC#CC(=O)OC)c1ccccc1 [Compound of formula (110)] | 63 | 125 | 
CCCN(CC#CC(=O)OC)c1ccc(OC)cc1 [Compound of formula (111)] | 63 |  | 
CCCCCN(CC#CC(=O)OC)c1cccc(OC)c1 [Compound of formula (112)] | 63 |  | 
CCCCN(CC#CC(=O)OC)c1cccc(C)c1 [Compound of formula (113)] | 125 |  | 
CCN(CC#CC(=O)OC)c1ccc(OC)cc1 [Compound of formula (114)] | 60 | 60 | 
CCN(CC#CC(=O)OC)c1cccc(C)c1 [Compound of formula (115)] |  | 8 | 
CCOC(=O)C#CCNc1ccccc1 [Compound of formula (116)] | 125 | 125 | 
CCOC(=O)C#CCNc1ccc(OC)cc1 [Compound of formula (117)] | 500 | 500 | 
COC(=O)C#CCNc1ccc(C)cc1 [Compound of formula (118)] | 125 | 125 | 
